This passage reports IC50 and Ki results from ChEMBL document CHEMBL1909046, “DrugMatrix in vitro pharmacology data”.

Experiment [1] concerns the target T1, Alpha-2C adrenergic receptor (Homo sapiens, UniProt P18825).
T1 sequence (P18825 whole entry): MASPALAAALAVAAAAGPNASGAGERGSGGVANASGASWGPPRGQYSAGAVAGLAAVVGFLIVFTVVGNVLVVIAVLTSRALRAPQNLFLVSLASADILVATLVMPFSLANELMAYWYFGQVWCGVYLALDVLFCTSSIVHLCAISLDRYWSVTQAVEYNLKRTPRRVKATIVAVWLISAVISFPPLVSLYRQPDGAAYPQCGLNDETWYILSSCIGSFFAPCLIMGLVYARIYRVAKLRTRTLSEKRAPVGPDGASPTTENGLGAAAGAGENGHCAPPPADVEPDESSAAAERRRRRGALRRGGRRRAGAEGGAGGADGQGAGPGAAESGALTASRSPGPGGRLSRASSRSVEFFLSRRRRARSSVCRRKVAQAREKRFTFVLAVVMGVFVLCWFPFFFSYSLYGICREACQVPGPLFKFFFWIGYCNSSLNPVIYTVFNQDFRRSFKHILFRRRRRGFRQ
As to the kind of experiment: DRUGMATRIX: Adrenergic Alpha-2C radioligand binding (ligand: [3H] MK-912). The class given is cell membranes, Sf9, Membrane. Particulars: sf9.

The target in experiment [2] is Beta-3 adrenergic receptor (Homo sapiens, UniProt P13945). As to the kind of experiment: DRUGMATRIX: Adrenergic beta3 radioligand binding (ligand: [125I] Cyanopindolol). The experiment is classed as cell membranes, HEK293, Membrane. Particulars: hek293; Not Active = under 50% inhibition at 10 µM.
Sequence of Beta-3 adrenergic receptor (P13945 whole entry): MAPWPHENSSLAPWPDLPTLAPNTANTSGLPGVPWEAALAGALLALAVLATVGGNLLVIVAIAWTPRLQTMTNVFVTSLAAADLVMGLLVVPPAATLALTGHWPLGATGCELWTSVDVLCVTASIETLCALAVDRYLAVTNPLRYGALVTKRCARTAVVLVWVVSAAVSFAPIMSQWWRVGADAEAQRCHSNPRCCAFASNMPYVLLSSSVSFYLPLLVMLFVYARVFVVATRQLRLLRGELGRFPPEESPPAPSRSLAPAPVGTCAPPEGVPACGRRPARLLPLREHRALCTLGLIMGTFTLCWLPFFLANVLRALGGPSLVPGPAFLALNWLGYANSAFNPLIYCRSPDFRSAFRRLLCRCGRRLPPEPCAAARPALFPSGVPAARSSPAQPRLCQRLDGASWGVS
Experiment [3] can be described thus: DRUGMATRIX: GABAA, Muscimol, Central radioligand binding (ligand: [3H] Muscimol). The class given is cell membranes, Rattus norvegicus, Wistar, Brain, Membrane. Particulars: Not Active = under 50% inhibition at 10 µM.
A further experiment concerns the target T2, Leukotriene C4 synthase (Cavia porcellus, UniProt A6XA80).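 Also: enzyme inhibition assay of leukotriene C4 synthase, using LTA4 as the substrate; in other assays of this panel Not Active means under 50% inhibition at 10 µM.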
T2 sequence (A6XA80 whole entry): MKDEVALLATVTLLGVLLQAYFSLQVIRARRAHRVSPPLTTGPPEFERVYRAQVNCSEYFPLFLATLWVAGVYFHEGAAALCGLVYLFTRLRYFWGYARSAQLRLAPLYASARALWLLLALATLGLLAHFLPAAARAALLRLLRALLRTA
The experiment is classed as tissue-based, Lung.

Experiment [4] is described as follows: DRUGMATRIX: Phorbol Ester radioligand binding (ligand: [3H] PDBu). The settings on record: Not Active = under 50% inhibition at 10 µM. The class given is cell membranes, Mus musculus, ICR, Brain, Membrane.
The target in experiment [5] is Tyrosine-protein kinase Lck (Homo sapiens, UniProt P06239). The experiment can be described thus: DRUGMATRIX: Protein Tyrosine Kinase, LCK enzyme inhibition (substrate: Poly(Glu:Tyr)). The settings on record: insect cells, Not Active = under 50% inhibition at 10 µM. The class given is cell-based, Insect cells.
Sequence of Tyrosine-protein kinase Lck (P06239 whole entry): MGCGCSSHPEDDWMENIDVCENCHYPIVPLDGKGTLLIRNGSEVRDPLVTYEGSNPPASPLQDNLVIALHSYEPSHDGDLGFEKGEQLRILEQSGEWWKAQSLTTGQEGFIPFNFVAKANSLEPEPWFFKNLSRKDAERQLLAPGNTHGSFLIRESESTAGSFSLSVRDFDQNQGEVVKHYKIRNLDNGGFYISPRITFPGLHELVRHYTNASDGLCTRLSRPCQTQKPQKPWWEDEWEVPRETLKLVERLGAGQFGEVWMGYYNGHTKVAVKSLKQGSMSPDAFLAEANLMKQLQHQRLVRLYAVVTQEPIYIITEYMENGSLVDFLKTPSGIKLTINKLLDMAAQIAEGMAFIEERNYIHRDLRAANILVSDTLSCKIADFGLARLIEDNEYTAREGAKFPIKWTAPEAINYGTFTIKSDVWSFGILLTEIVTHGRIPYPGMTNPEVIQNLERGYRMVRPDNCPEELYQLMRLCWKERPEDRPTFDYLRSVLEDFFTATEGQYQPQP
The next experiment concerns the target Estrogen receptor beta (Homo sapiens, UniProt Q92731). Particulars: sf9. Also: in other assays of this panel Not Active means under 50% inhibition at 10 µM.

What is called IC50 is the concentration that inhibits the measured activity by half.

Sequence of Estrogen receptor beta (Q92731 whole entry): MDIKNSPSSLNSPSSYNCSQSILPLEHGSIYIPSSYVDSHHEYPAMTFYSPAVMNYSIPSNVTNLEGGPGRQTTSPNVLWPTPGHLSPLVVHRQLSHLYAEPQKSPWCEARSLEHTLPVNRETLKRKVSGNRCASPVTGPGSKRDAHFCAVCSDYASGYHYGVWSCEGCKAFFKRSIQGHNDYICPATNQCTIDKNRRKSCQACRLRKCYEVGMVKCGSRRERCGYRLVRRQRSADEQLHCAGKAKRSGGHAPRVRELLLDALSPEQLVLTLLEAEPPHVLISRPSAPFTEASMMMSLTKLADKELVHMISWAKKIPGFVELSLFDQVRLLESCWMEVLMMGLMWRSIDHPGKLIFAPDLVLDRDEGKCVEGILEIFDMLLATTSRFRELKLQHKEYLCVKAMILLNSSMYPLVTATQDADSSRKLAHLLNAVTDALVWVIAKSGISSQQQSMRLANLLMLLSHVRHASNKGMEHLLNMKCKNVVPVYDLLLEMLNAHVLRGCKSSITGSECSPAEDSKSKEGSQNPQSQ

Take `COc1ccc(C2C(=O)c3ccccc3C2=O)cc1` [ANISINDIONE]: the IC50 entry (in experiment [1]; in experiment [2]; in experiment [3]; against Leukotriene C4 synthase; in experiment [4]; in experiment [5]) was “Not Active” throughout. For the same molecule, the IC50 result against Estrogen receptor beta is given as “Not Active”. Also, the Ki entry in experiment [3] and in experiment [4] was “Not Active” throughout.
In the case of `CN/C(=N\CCSCc1nc[nH]c1C)NC#N` [CIMETIDINE], the IC50 result (in experiment [1]; in experiment [2]; in experiment [3]; against Leukotriene C4 synthase; in experiment [4]; in experiment [5]) was “Not Active” in each case. For the same molecule, the IC50 entry against Estrogen receptor beta is “Not Active”. Further, the Ki entry in experiment [3] and in experiment [4] was “Not Active” in each case.
As for NYSTATIN, the IC50 entry (in experiment [1]; in experiment [2]; in experiment [3]; against Leukotriene C4 synthase; in experiment [4]; in experiment [5]) was “Not Active” in each case. Also, the IC50 entry against Estrogen receptor beta is given as “Not Active”. Moreover, the Ki entry (in experiment [1]; in experiment [2]; in experiment [3]; at Leukotriene C4 synthase; in experiment [4]; in experiment [5]) was “Not Active” throughout. The Ki entry at Estrogen receptor beta is listed as “Not Active”.
On to `CCCNCC(O)COc1ccccc1C(=O)CCc1ccccc1` (stereo not given) [PROPAFENONE], for which the concentration for half-maximal inhibition (IC50) result (in experiment [1]; in experiment [3]; on Leukotriene C4 synthase; in experiment [4]; in experiment [5]; against Estrogen receptor beta) was “Not Active” in each case. The Ki entry in experiment [3] and in experiment [4] was “Not Active” in each case.
As to `Brc1c(NC2=NCCN2)ccc2nccnc12` [BRIMONIDINE], the IC50 result (in experiment [1]; in experiment [2]; in experiment [3]; on Leukotriene C4 synthase; in experiment [4]; in experiment [5]) was “Not Active” in each case. Also, the IC50 result on Estrogen receptor beta is reported as “Not Active”. Further, the Ki result in experiment [3] and in experiment [4] was “Not Active” in each case.
For `COc1cc([C@@H]2c3cc4c(cc3[C@@H](O[C@@H]3O[C@@H]5CO[C@@H](C)O[C@H]5[C@H](O)[C@H]3O)[C@H]3COC(=O)[C@H]23)OCO4)cc(OC)c1O` [ETOPOSIDE], the IC50 result (in experiment [1]; in experiment [2]; in experiment [3]; against Leukotriene C4 synthase; in experiment [4]; in experiment [5]) was “Not Active” throughout. The IC50 entry on Estrogen receptor beta is recorded as “Not Active”. Further, the Ki entry in experiment [3] and in experiment [4] was “Not Active” in each case.
Turning to `COC(=O)CCc1ccc(OCC(O)CNC(C)C)cc1` (stereo not given) [ESMOLOL], the IC50 entry (in experiment [1]; in experiment [2]; in experiment [3]; on Leukotriene C4 synthase; in experiment [4]; in experiment [5]) was “Not Active” throughout. In addition, the IC50 entry on Estrogen receptor beta was “Not Active”. Besides, the Ki result in experiment [3] and in experiment [4] was “Not Active” throughout.
Consider `O=c1cnn([C@@H]2O[C@H](CO)[C@@H](O)[C@H]2O)c(=O)[nH]1` [6-AZAURIDINE], for which the 50% inhibitory concentration (IC50) result (in experiment [1]; in experiment [2]; in experiment [3]; on Leukotriene C4 synthase; in experiment [4]; in experiment [5]) was “Not Active” each time. In addition, at Estrogen receptor beta, the IC50 result is recorded as “Not Active”. The Ki entry in experiment [3] and in experiment [4] was “Not Active” in each case.
As for `Cc1c(OCC(F)(F)F)ccnc1C[S+]([O-])c1nc2ccccc2[nH]1` (stereo not given) [LANSOPRAZOLE], the IC50 entry (in experiment [1]; in experiment [2]; in experiment [3]; at Leukotriene C4 synthase; in experiment [4]; in experiment [5]) was “Not Active” each time. Moreover, on Estrogen receptor beta, the IC50 entry is on record as “Not Active”. The Ki entry in experiment [3] and in experiment [4] was “Not Active” each time.
For the molecule `C[C@@H]1C[C@H]2[C@@H]3CCC4=CC(=O)C=C[C@]4(C)[C@@]3(F)[C@@H](O)C[C@]2(C)[C@H]1C(=O)CO` [DESOXIMETASONE], the IC50 result (in experiment [1]; in experiment [2]; in experiment [3]; against Leukotriene C4 synthase; in experiment [4]; in experiment [5]) was “Not Active” throughout. For the same molecule, the concentration for half-maximal inhibition (IC50) entry on Estrogen receptor beta is “Not Active”. The Ki entry in experiment [3] and in experiment [4] was “Not Active” each time.
In the case of `O=C(c1ccccc1C(F)(F)F)N1CCC(Cc2ccccc2)CC1`, the IC50 result (in experiment [1]; in experiment [2]; in experiment [3]; on Leukotriene C4 synthase; in experiment [4]; in experiment [5]) was “Not Active” each time. In addition, the IC50 result at Estrogen receptor beta is recorded as “Not Active”. In addition, the Ki result in experiment [3] and in experiment [4] was “Not Active” throughout.
Regarding `O=c1cc(N2CCOCC2)oc2c(-c3ccccc3)cccc12` [LY-294002], the IC50 entry (in experiment [1]; in experiment [2]; in experiment [3]; at Leukotriene C4 synthase; in experiment [4]; at Estrogen receptor beta) was “Not Active” throughout. Also, the Ki entry in experiment [3] and in experiment [4] was “Not Active” throughout.
For the molecule `NC(=O)C[S+]([O-])C(c1ccccc1)c1ccccc1` (stereo not given) [MODAFINIL], the IC50 result (in experiment [1]; in experiment [2]; in experiment [3]; against Leukotriene C4 synthase; in experiment [4]; in experiment [5]) was “Not Active” in each case. The IC50 result against Estrogen receptor beta was “Not Active”. Further, the Ki result in experiment [3] and in experiment [4] was “Not Active” in each case.
Turning to `CC(C)NNC(=O)c1ccncc1` [IPRONIAZID], the IC50 entry (in experiment [1]; in experiment [2]; in experiment [3]; on Leukotriene C4 synthase; in experiment [4]; in experiment [5]) was “Not Active” each time. In addition, at Estrogen receptor beta, the half-maximal inhibitory concentration (IC50) entry is recorded as “Not Active”. For the same molecule, the Ki result in experiment [3] and in experiment [4] was “Not Active” throughout.
Take GRAMICIDIN: the IC50 entry in experiment [1] is “Not Active”; in experiment [2], “Not Active”; in experiment [3], “Not Active”; on Leukotriene C4 synthase, “Not Active”; in experiment [4] it was “Not Active”; in experiment [5] (read-out: IC50), 1090 nM. The IC50 result on Estrogen receptor beta is “Not Active”. Besides, the Ki result (in experiment [1]; in experiment [2]; in experiment [3]; on Leukotriene C4 synthase; in experiment [4]; at Estrogen receptor beta) was “Not Active” in each case.
Regarding `CC(=O)[C@@]1(O)CC[C@H]2[C@@H]3CCC4=CC(=O)CC[C@]4(C)[C@H]3CC[C@@]21C` [HYDROXYPROGESTERONE], the IC50 entry (in experiment [1]; in experiment [2]; in experiment [3]; against Leukotriene C4 synthase; in experiment [4]; in experiment [5]) was “Not Active” throughout. In addition, the IC50 entry on Estrogen receptor beta is “Not Active”. Besides, the Ki result in experiment [3] and in experiment [4] was “Not Active” each time.
For the molecule `O=C(N/N=C/c1ccc([N+](=O)[O-])o1)c1cc([N+](=O)[O-])cc([N+](=O)[O-])c1O` [NIFURSOL], the IC50 result (in experiment [1]; in experiment [2]; in experiment [3]; against Leukotriene C4 synthase; in experiment [4]; in experiment [5]) was “Not Active” each time. The IC50 result against Estrogen receptor beta was “Not Active”. Moreover, the Ki entry in experiment [3] and in experiment [4] was “Not Active” each time.
In the case of `CC(C)NCC(O)COc1cccc2[nH]ccc12` (stereo not given) [PINDOLOL], the IC50 entry (in experiment [1]; in experiment [3]; on Leukotriene C4 synthase; in experiment [4]; in experiment [5]; against Estrogen receptor beta) was “Not Active” in each case. The Ki result in experiment [3] and in experiment [4] was “Not Active” in each case.
As to `Oc1cccc(O)c1O` [PYROGALLOL], the IC50 result (in experiment [1]; in experiment [2]; in experiment [3]; on Leukotriene C4 synthase; in experiment [4]; in experiment [5]) was “Not Active” each time. Further, the IC50 entry against Estrogen receptor beta is “Not Active”. Further, the Ki entry in experiment [3] and in experiment [4] was “Not Active” each time.
As to `COc1cc2nc(N3CCN(C(=O)c4ccco4)CC3)nc(N)c2cc1OC` [PRAZOSIN], the IC50 entry (in experiment [2]; in experiment [3]; at Leukotriene C4 synthase; in experiment [4]; in experiment [5]; against Estrogen receptor beta) was “Not Active” in each case. Besides, the Ki entry in experiment [3] and in experiment [4] was “Not Active” throughout.
